We go through 78 compounds from the METLIN SMRT retention time set (Domingo-Almenara et al. 2019).

This series can be described thus: gradient 5% acetonitrile 3 min, to 50% in 2 min, to 85% in 15 min, held 3 min, 100 µL/min. The conditions noted are these: column: Zorbax Extend-C18 2.1 x 50 mm; eluents: water / acetonitrile, 0.1% formic acid. Put shortly: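 Over 3 months, pure standards in mixtures of ~100 molecules were run by HPLC coupled to a quadrupole time-of-flight mass spectrometer in positive and negative ionization mode. The column was a Zorbax Extend-C18 (2.1 × 50 mm, 1.8 μm) at 100 μL/min, eluted with water and acetonitrile each holding 0.1% formic acid, with 40 μL dead and 900 μL dwell volumes. Retention time was determined from adduct peaks chosen by software and checked manually.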
The compound `CC(C)CN1C(=O)c2ccccc2C(C(=O)NCc2ccccn2)C1c1cccs1` (stereo not drawn) had an RP-LC retention time of 632 s.

Compound `CC1=C(c2ccc(C)cc2)S(=O)(=O)N=C1N1CCCN(C(=O)C(C)(C)C)CC1` had an RP-LC retention time of 858 s.

Compound `CCCOc1ccc(C2C(=O)N(C3CCC(C)CC3)CC(=O)N2Cc2ccco2)cc1OC` (stereo not drawn) showed an RP-LC retention time of 1070 s.

Consider `O=C(c1ccc(Cl)cc1)N1CCN(c2nc(CN3CCOCC3)cs2)CC1`, for which the RP-LC retention time stood at 638 s.

On to `COCCCn1c(=O)c2ccccc2n(Cc2nc(-c3ccccc3OC)no2)c1=O`, for which the RP-LC retention time was found to be 874 s.

`O=C(Nc1ccc2c(c1)OCCO2)C1CCCN(S(=O)(=O)Cc2ccccc2Cl)C1` (stereo not drawn) yielded an RP-LC retention time of 968 s.

Consider `O=C(Nc1c(F)cccc1F)N1CCc2nc(-c3ccc(F)cc3)ncc2C1`, for which the RP-LC retention time is 932 s.

For the compound `CCOc1ccccc1NC(=O)C1CCN(S(=O)(=O)c2cc(-c3noc(C)n3)sc2C)CC1`, the RP-LC retention time came to 1010 s.

For `CCc1noc(NC(C)=O)c1-c1ccc(OC)c(S(=O)(=O)N2CCCc3ccccc32)c1`, the RP-LC retention time turned out to be 879 s.

`CCCN1CCN(c2cc(C(=O)O)c3cc(NC(=O)c4ccc(Br)cc4)ccc3n2)CC1`: the RP-LC retention time came out at 628 s.

The compound `O=C(CN(CC1CCCO1)C(=O)c1cccc(Br)c1)N1CCNCC1` (stereo not drawn) had an RP-LC retention time of 602 s.

Consider `CCc1noc(NC(C)=O)c1-c1ccc(OC)c(S(=O)(=O)Nc2ccc(C)c(F)c2)c1`, for which the RP-LC retention time was 836 s.

For `Cc1ccc(NS(=O)(=O)c2cc(-c3cc(C(F)(F)F)on3)sc2C)c(Cl)c1`, the RP-LC retention time is 1220 s.

With `CCCS(=O)(=O)N1CCc2ccc(NC(=O)c3cccn(C)c3=O)cc2C1`, the RP-LC retention time was 731 s.

As to `CCOc1ccc(NC(=O)Cc2cn(C)c3ncccc23)cc1`, the RP-LC retention time is 712 s.

Regarding `CC(C)C[C@H]1C(=O)N2CCC[C@H]2[C@]2(O)O[C@](NC(=O)[C@@H]3C=C4c5cccc6[nH]c(Br)c(c56)CC4N(C)C3)(C(C)C)C(=O)N12` (stereo partly drawn), the RP-LC retention time was 830 s.

For the compound `O=C1[C@H]2CN(Cc3ccccc3OC(F)(F)F)C[C@H]2C(=O)N1Cc1ccc2c(c1)OCO2`, the RP-LC retention time came out at 1050 s.

As to `Cc1csc2nc(CSc3nnc(-c4ccccc4F)o3)cc(=O)n12`, the RP-LC retention time worked out at 799 s.

In turn, `COCC(C)(O)CNC(=O)c1ccco1` (stereo not drawn) had an RP-LC retention time of 549 s.

Compound `Cc1ccc(NC(=O)N2CCC(C(C)C(=O)Nc3ccccc3F)CC2)cc1` (stereo not drawn) showed an RP-LC retention time of 869 s.

`Cc1ccc(C(=O)Nc2nc(C)cc(C)c2-c2noc(C)n2)cc1` yielded an RP-LC retention time of 743 s.

On to `CCN1CCc2nc(-c3ccc(F)cc3)n(CC(=O)N3CCCc4ccccc43)c(=O)c2C1`, for which the RP-LC retention time is 625 s.

Regarding `O=S(=O)(c1ccc2nc(N3CCN(c4ccccn4)CC3)ccc2c1)N1CCCCC1`, the RP-LC retention time was found to be 649 s.

`CCOC(=O)C(CC)n1nc2nc(Nc3ccc(C)cc3)cc(C)n2c1=O` (stereo not drawn) yielded an RP-LC retention time of 1230 s.

`CCC(C)NC(=O)Cn1cccc(-c2nc(-c3ccc(Cl)cc3)no2)c1=O` (stereo not drawn) came in with an RP-LC retention time of 852 s.

`O=C(Cc1ccc(Cl)cc1)N1CCN(c2cnn3cnnc3c2)CC1` yielded an RP-LC retention time of 656 s.

Compound `CCS(=O)(=O)N1C[C@@H](COC)[C@H](C(N)=O)C1` had an RP-LC retention time of 560 s.

For the compound `O=C(Cn1c(=O)c2nncn2c2ncccc21)N1CCN(c2ccc(Cl)cc2)CC1`, the RP-LC retention time came to 744 s.

`CC(C)n1cnc2cc(CNC(=O)CCc3ccccc3)ccc21`: the RP-LC retention time was found to be 631 s.

As to `Fc1ccc(Cn2cc(-c3noc(C4CCCC4)n3)nn2)cc1`, the RP-LC retention time was 991 s.

For `CCc1cccc(C)c1NC(=O)Cn1nc2n(c1=O)CCCCC2`, the RP-LC retention time worked out at 700 s.

Regarding `O=C1C(N2CCN(S(=O)(=O)c3ccc(Cl)cc3)CC2)CCN1CCc1ccccc1` (stereo not drawn), the RP-LC retention time stood at 718 s.

`O=C(Nc1ccc(F)cc1Cl)c1c(O)c2cccnc2n(Cc2ccccc2)c1=O` yielded an RP-LC retention time of 1240 s.

`Cc1ccc(CNC(=O)C2CCc3sc(C(=O)N(C)C)cc3C2)cc1` (stereo not drawn) came in with an RP-LC retention time of 692 s.

Compound `COc1ccc(NC(=O)N2CCCC(CN3CCc4ccccc4C3)C2)cc1OC` (stereo not drawn) came in with an RP-LC retention time of 628 s.

The compound `CCOc1nc2ccccc2nc1N1CCCC(C(=O)Nc2ccc(Cl)cc2C)C1` (stereo not drawn) gave an RP-LC retention time of 1300 s.

Compound `COc1cccc(C2Cn3nnc(-c4nc(-c5ccccc5C)no4)c3CO2)c1` (stereo not drawn) yielded an RP-LC retention time of 1180 s.

As for `Cc1ccc(Nc2nc(N3CCN(C(=O)c4ccco4)CC3)nc3[nH]ncc23)cc1`, the RP-LC retention time is 616 s.

In the case of `CCc1cc(C(=O)Nc2ccc(N3CCOCC3)cc2)nc2cc(-c3ccco3)nn12`, the RP-LC retention time was 683 s.

For the compound `CCn1cc(S(=O)(=O)NCCc2noc(-c3ccncc3)n2)cn1`, the RP-LC retention time came out at 645 s.

Turning to `Cc1nnc(-c2cn(CC(=O)NCc3ccccc3Cl)c3ccccc23)o1`, the RP-LC retention time came to 821 s.

Regarding `Cc1ccc(C(CNC(=O)c2cc(-c3ccc4c(c3)CCCC4)on2)N2CCN(C)CC2)o1` (stereo not drawn), the RP-LC retention time worked out at 838 s.

For `COCCCNC(=O)CCC[C@@H]1[C@H]2CCCN3CCC[C@@H](CN1C)[C@@H]23`, the RP-LC retention time is 709 s.

Compound `CCOc1ccc(-c2csc(C)n2)cc1S(=O)(=O)Nc1ccc(OC)cc1` displayed an RP-LC retention time of 940 s.

The compound `COc1ccc(-c2ncc3c(n2)CCN(S(=O)(=O)c2cccc(Cl)c2)C3)cc1` showed an RP-LC retention time of 1100 s.

`COC(=O)c1ccccc1Nc1c(-c2ccc(N(C)C)cc2)nc2cnccn12` had an RP-LC retention time of 921 s.

For `Cn1cc(C(CNC(=O)Nc2ccccc2F)c2cccnc2)c2ccccc21` (stereo not drawn), the RP-LC retention time worked out at 682 s.

The compound `Cc1ccc2oc(-c3noc(C(=O)NCc4ccc5c(c4)OCO5)n3)c(C)c2c1` registered an RP-LC retention time of 1120 s.

`COc1ccc(NC(=O)C2CCCN(c3ncnc4c3oc3ccccc34)C2)cc1` (stereo not drawn) returned an RP-LC retention time of 747 s.

`COc1cc(OC)c(NC(=O)N2CC(c3nc(C(C)C)nn3C)C2)cc1Cl` gave an RP-LC retention time of 695 s.

Regarding `CCn1ccc(-c2nc(-c3cccc(-c4csc(C5CC5)n4)c3)no2)n1`, the RP-LC retention time was found to be 1220 s.

`COc1ccc(NC(=O)Nc2ccc(-c3cn4cccnc4n3)cc2)cc1` showed an RP-LC retention time of 616 s.

The compound `COc1cccc(NC(=O)Cn2cnc(-c3noc(C4CC4)n3)c2)c1` returned an RP-LC retention time of 725 s.

Regarding `COC(=O)c1ccc(N2C=C(C#N)S(=O)(=O)c3cc(F)ccc32)cc1`, the RP-LC retention time was 847 s.

For `Clc1ccccc1N1CCN(Cc2nnc(-c3ccccc3)o2)CC1`, the RP-LC retention time stood at 768 s.

`CCOC(=O)c1cccc(NC(=O)CSc2ccc(N3CCCC(C(=O)NC4CC4)C3)nn2)c1` (stereo not drawn): the RP-LC retention time was 680 s.

As to `CCOC(=O)c1c(C)oc2ncnc(NCC3CCN(Cc4ccc(F)cc4)CC3)c12`, the RP-LC retention time amounted to 698 s.

On to `O=C(c1ccc(OCC2CCCN(C(=O)c3ccco3)C2)cc1)N1CCOCC1` (stereo not drawn), for which the RP-LC retention time was 712 s.

`CCOc1ccc(-c2cc(C(=O)N3CCN(c4ccccn4)CC3)c3ccccc3n2)cc1` registered an RP-LC retention time of 726 s.

In the case of `Cc1ccc(Cl)cc1N1CCN(C(=O)CCN2C(=O)C3C4C=CC(C4)C3C2=O)CC1` (stereo not drawn), the RP-LC retention time came to 989 s.

Turning to `O=C(COc1ccccc1)Nc1ccc(-c2nc(-c3ccc(Cl)cc3)no2)cc1`, the RP-LC retention time worked out at 1280 s.

Turning to `CCC(=O)NCc1nc2c(n1C)CN(S(=O)(=O)c1cccc(Cl)c1)CC2`, the RP-LC retention time turned out to be 570 s.

Turning to `CC(=O)N1CCc2cc(N3CC(C(=O)NCc4ccco4)CC3=O)ccc21` (stereo not drawn), the RP-LC retention time worked out at 640 s.

As to `Cc1ccc(-c2nnc(-c3cccnc3N3CCC4(CC3)OCCO4)o2)cc1`, the RP-LC retention time is 962 s.

Regarding `CN1CCCN(C(=O)C2CN(S(=O)(=O)c3cccnc3)CC23CCCCC3)CC1` (stereo not drawn), the RP-LC retention time is 605 s.

Turning to `CN1C(=O)c2cccnc2Sc2cc(C(=O)NCc3ccccc3Cl)ccc21`, the RP-LC retention time was found to be 806 s.

Compound `CC(C)C(=O)Nc1ccc(-n2cnc(C(=O)N3CCN(Cc4ccccc4)CC3)c2)nc1` displayed an RP-LC retention time of 608 s.

Turning to `Cc1ccc(NC(=O)N2CCC(n3cnc4cc(F)ccc4c3=O)CC2)c(C)c1`, the RP-LC retention time worked out at 811 s.

Compound `O=C(CC1CCCC1)N1CCC(N(Cc2cccnc2)C2CCOCC2)CC1` came in with an RP-LC retention time of 604 s.

Turning to `CC(C)OC(=O)COC(=O)c1cn(-c2ccc(F)cc2)c(=O)c2ccccc12`, the RP-LC retention time stood at 1090 s.

Regarding `O=C(c1ccc(C(F)(F)F)s1)N1CCN(c2nc(CN3CCCCC3)cs2)CC1`, the RP-LC retention time worked out at 703 s.

In turn, `CC(C(=O)N1CCCCC1)n1ccc2cc(S(=O)(=O)N3CCCCCC3)ccc21` (stereo not drawn) returned an RP-LC retention time of 1010 s.

`Cc1ccc(C)c(NC(=O)N2CCN(c3cc(-c4cccnc4)[nH]n3)CC2)c1` returned an RP-LC retention time of 632 s.

`CS(=O)(=O)N1CCc2cc(C(=O)N3CCC(C(N)=O)CC3)ccc21` showed an RP-LC retention time of 583 s.

Turning to `CC(C)n1c(=O)oc2cc(-c3noc(-c4cc(F)ccc4Cl)n3)ccc21`, the RP-LC retention time stood at 1230 s.

The compound `Cc1cc(NC(=O)CCn2cnc3ccccc3c2=O)sn1` yielded an RP-LC retention time of 619 s.

On to `O=C(NCC1CC1)c1c(O)c2sccc2n(Cc2ccccc2)c1=O`, for which the RP-LC retention time stood at 766 s.

As to `CC(C)CN1C(=O)c2cccn2CC1CNC(=O)c1n[nH]c(=O)c2ccccc12` (stereo not drawn), the RP-LC retention time worked out at 689 s.
